Literature values in patent publication US9242010B2, “Living copolymer-protein/peptide hybrids for biomedical applications” (Research Foundation of The City University of New York, priority 2008, dated 2016).

Columns and labels:
[1] = background statement
avidin/streptavidin = details: interaction of avidin/streptavidin with biotin

COc1cc(/C=C/C(=O)CC(=O)/C=C/c2ccc(O)c(OC)c2)ccc1O [curcumin, (1E,6E)-1,7-bis(4-hydroxy-3-methoxyphenyl)hepta-1,6-diene 3,5-dione]
water and plasma solubility [1]: poor

CC(=O)O[C@H]1C(=O)[C@@]2(C)[C@H]([C@H](OC(=O)c3ccccc3)[C@]3(O)C[C@H](OC(=O)[C@H](O)[C@@H](NC(=O)c4ccccc4)c4ccccc4)C(C)=C1C3(C)C)[C@]1(OC(C)=O)CO[C@@H]1C[C@@H]2O [taxol]
water solubility [1]: not water soluble

O=C(O)CCCC[C@@H]1SC[C@@H]2NC(=O)N[C@@H]21 [biotin]
Ka (avidin/streptavidin): > 10^14
